The source of these data is article PMC9954146, “Anti-Leukaemic Activity of Rilpivirine Is Mediated by Aurora A Kinase Inhibition” (Cancers, 2023).

Each structure is given as a SMILES string.

For assay [1], the system named is K-562 cells. Kind of assay: Resazurin cell viability assay. Format: cell-based, human. To be noted: 72 h. The method, then:
Cell viability was determined by a resazurin-based assay as described previously. Briefly, 5 × 10^3 cells/well were seeded into 96-well plates (Corning Inc., Corning, NY, USA) in 180 µL of RPMI 1640 medium and incubated overnight at 37 °C with 5% CO2. Next day, cells were treated with rilpivirine after serially diluted (1:2 dilution for final concentrations ranging from 0.625 µM to 40 µM) or DMSO (0.1%) for specified time periods (24, 48, or 72 h). At the end of the treatment period, 20 µL of resazurin (0.1 mg/mL in PBS) was added per well and incubated for further 4 h. Fluorescence intensities were recorded at 570 nm (excitation)/585 nm (emission) using an EnVision® multilabel plate reader (PerkinElmer, MA, USA). Drug concentrations required for cell viability reduction by 50% (GI50) compared with untreated (DMSO vehicle-treated only) control were determined by a non-linear regression model using GraphPad Prism software version 7.02 (La Jolla, CA, USA).
A general note: The colour change of resazurin is a common sign of viable cells or microbes.

In assay [2] the test system is K-562 cells. Kind of assay: Cell cycle analysis (PI, flow cytometry). Format: cell-based, human. The method, then: (§1) To determine the effect of rilpivirine on cell-cycle distribution a flow cytometry-based analysis was performed after staining the untreated and treated cells with propidium iodide (PI) solution [22]. Briefly, 6 × 10^4 cells/well were seeded in 3 mL of medium per well in 6-well plates. After overnight incubation at 37 °C in 5% CO2, the cells were incubated with the test compounds for specified time points. The medium-containing cells were then taken out from the wells and transferred to FACS tubes. Cells were then pelleted by centrifugation at 300 g for 5 min. Afterward, cells were fixed by using 70% (v/v) ice-cold ethanol for 15 min and then again pelleted by centrifugation (300 g for 5 min). Finally, the cells were incubated with 200 µL of PI staining solution (50 μg/mL PI, 0.1% sodium citrate, 0.1 mg/mL RNase A, and 0.1% Triton X-100) for 1.5 h at room temperature in the dark. After the incubation period, the cells were analysed using a CytoFLEX flow cytometer (Beckman Coulter Inc., Brea, CA, USA). CytExpert software version 2.1 was used for data analysis and graph preparation.
(In general: Flow cytometry measures light scatter and fluorescence of single cells or particles in a stream.)

A further assay concerns KG1 cells. Also on record: method as in PMID 18056483. To be noted: cited from earlier work.
The test system of assay [3] is SKOV-3 ovarian-cancer cells. Details: method as in PMID 28390117. The note with it: FACS analysis; cited from earlier work.
In the next assay the test system is HL-60 cells. Kind of assay: Resazurin cell viability assay. Format: cell-based. To be noted: Homo sapiens, HL-60, 72 h; read-out: 72-h GI50. The method, then:
Cell viability was determined by a resazurin-based assay as described previously. […] At the end of the treatment period, 20 µL of resazurin (0.1 mg/mL in PBS) was added per well and incubated for further 4 h.

In another assay the test system is NB4 cells. Description: Cell cycle analysis (PI, flow cytometry). To be noted: 10 µM, 24 h. The format is cell-based, human. The method, then:
as §1

The test system of another assay is U-937 cells. Kind of assay: Cell cycle analysis (PI, flow cytometry). Format: cell-based, human. The note with it: 10 µM, 24 h. The method, then: as §1
A further assay concerns Aurora A. Details: method as in PMID 36297298. The note with it: cited from earlier work.

As usually defined, the GI50 is the concentration giving 50% growth inhibition. The molecule `N[C@@H]1CCCN(c2c(/C=C3\SC(=O)NC3=O)cccc2-c2ccccc2)C1` [AZD1208] registered a GI50 in the assay on K-562 cells [1] of roughly 38 µM. Moreover, the cell-cycle arrest result with K-562 cells [2] (60 μM, 48 h) is given as “induced G1 arrest”.

For `CC(C)(C)n1nc(-c2ccc(Cl)cc2)c2c(N)ncnc21` [PP2], the cell-cycle arrest result in the assay with KG1 cells was “induced G1 cell-cycle arrest”.

Consider `Nc1nc(NC2CC2)c2ncn([C@H]3C=C[C@@H](CO)C3)c2n1` [abacavir], for which the cell-cycle phase arrest entry in assay [3] is “predominance of a G0/G1 phase arrest”.

Regarding `Nc1ccn([C@@H]2O[C@H](CO)[C@@H](O)[C@@H]2O)c(=O)n1` [cytarabine], the GI50 in the assay with HL-60 cells came out at 0.07 µM.

Consider `CC(C)CN(C[C@@H](O)[C@H](Cc1ccccc1)NC(=O)O[C@H]1CO[C@H]2OCC[C@H]21)S(=O)(=O)c1ccc(N)cc1` [darunavir], for which, in assay [3], the cell-cycle phase arrest entry is listed as “predominance of a G0/G1 phase arrest”.

For `O=C1Nc2ccc(Cl)cc2[C@@](C#CC2CC2)(C(F)(F)F)O1` [efavirenz], in assay [3], the cell-cycle phase arrest result was “predominance of a G0/G1 phase arrest”.

For the molecule `Cc1cc(C#N)cc(C)c1Oc1nc(Nc2ccc(C#N)cc2)nc(N)c1Br` [etravirine], the G2/M phase arrest entry in the assay with K-562 cells [2] (10 µM, 24 h) was “failed to induce a G2/M phase arrest”; with NB4 cells, “failed to induce a G2/M phase arrest”; with U-937 cells, “failed to induce a G2/M phase arrest”. Further, the “Aurora A kinase inhibition” value with Aurora A was “inability to inhibit Aurora A kinase”. Moreover, in assay [3], the cell-cycle phase arrest entry is “predominance of a G0/G1 phase arrest”. Further, in assay [3], the “proportion of cells in the G2/M phase” value is “failed to increase the proportion of cells in the G2/M phase”.

As for `C[C@H](Cn1cnc2c(N)ncnc21)OCP(=O)(O)O` [tenofovir], the cell-cycle phase arrest result in assay [3] is “predominance of a G0/G1 phase arrest”.
